Assay results published in publication PMC4765733 (Journal of medicinal chemistry, 2015).

What was measured:
HIV-1LAI = assay: Antiviral MTT assay, MT-2 cells exposed to HIV-1LAI; format: cell-based; conditions: Human immunodeficiency virus 1, MT2, read-out: IC50 (antiviral activity)
[1] = tested on: HIV-1ERS104pre (wild type); assay: Antiviral p24 Gag assay in PHA-PBMs, wild-type HIV-1ERS104pre; format: cell-based

Structure (SMILES)	IC50 (HIV-1LAI)	EC50 fold better than APV [1]
CC(C)CN(C[C@@H](O)[C@H](Cc1ccccc1)NC(=O)O[C@H]1CO[C@H]2OCC[C@H]21)S(=O)(=O)c1ccc(N)cc1 [Darunavir]	3 nM	
COc1ccc(S(=O)(=O)N(CC(C)C)C[C@@H](O)[C@H](Cc2cccc(-c3ccccc3OC)c2)NC(=O)O[C@H]2CO[C@H]3OCC[C@H]32)cc1 [Inhibitor 21e, (3R,3aS,6aR)-hexahydrofuro[2,3-b]furan-3-yl-((2S,3R)-3-hydroxy-4-(N-isobutyl-4-methoxyphenylsulfonamido)-1-(2'-methoxy-[1,1'-biphenyl]-3-yl)butan-2-yl)carbamate]		~10 fold
